PubChem BioAssay AID212 (DTP/NCI, 2004)
Values joined by “and” are separate entries in the source; they are usually repeats but may differ in a detail not shown here. Equal entries are not always repeated. Records with an inconclusive call do not appear.

Tested on: BDF1 mice, colon carcinoma 38 sc, T/C %
Test: NCI In Vivo Anticancer Drug Screen. Data for tumor model Colon Carcinoma 38 (subcutaneous) in B6D2F1 (BDF1) mice
Settings: endpoint: median tumor weight (est.), higher = larger tumour
In short: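 Mice with transplanted tumors are treated with compound or vehicle. Survival or tumor size is then measured in both groups. The ratio of treated to control gives the reported figure.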

[1] = dose: 25.0 mg/kg/injection, schedule: Q07DX002 (ip), vehicle: Klucel (hydroxypropylcellulose) (HPC)
[2] = dose: 50.0 mg/kg/injection, schedule: Q07DX002 (ip), vehicle: Klucel (hydroxypropylcellulose) (HPC)
[3] = dose: 100.0 mg/kg/injection, schedule: Q07DX002 (ip), vehicle: Klucel (hydroxypropylcellulose) (HPC)
[4] = dose: 400.0 mg/kg/injection, schedule: Q07DX002 (ip), vehicle: Klucel (hydroxypropylcellulose) (HPC)
[5] = dose: 12.5 mg/kg/injection, schedule: Q07DX002 (ip), vehicle: saline with Tween-80
[6] = dose: 25.0 mg/kg/injection, schedule: Q07DX002 (ip), vehicle: saline with Tween-80
[7] = dose: 50.0 mg/kg/injection, schedule: Q07DX002 (ip), vehicle: saline with Tween-80
[8] = dose: 12.5 mg/kg/injection, schedule: Q07DX002 (ip), vehicle: Klucel (hydroxypropylcellulose) (HPC)
[9] = dose: 100.0 mg/kg/injection, schedule: Q07DX002 (ip), vehicle: saline with Tween-80
[10] = dose: 200.0 mg/kg/injection, schedule: Q07DX002 (ip), vehicle: saline with Tween-80
[11] = dose: 400.0 mg/kg/injection, schedule: Q07DX002 (ip), vehicle: saline with Tween-80

Cn1c(N)c(C(=O)/C=C/c2ccccc2)c(=O)n(C)c1=O
T/C [1]: 114 % of control | T/C [2]: 112 % of control | T/C [3]: 109 % of control | T/C [4]: 123 % of control

O=C(O)C1CC1.[Ag]
T/C (dose: 6.25 mg/kg/injection, schedule: Q07DX002 (ip), vehicle: distilled water + Tween-80): 119 % of control | T/C (dose: 6.25 mg/kg/injection, schedule: Q07DX002 (ip), vehicle: water): 108 % of control | T/C (dose: 12.5 mg/kg/injection, schedule: Q07DX002 (ip), vehicle: water): 84 % of control | T/C (dose: 25.0 mg/kg/injection, schedule: Q07DX002 (ip), vehicle: distilled water + Tween-80): 87 % of control

CCN(CC)CC(C)(C)C(=O)/C=C/c1ccccc1
T/C (dose: 62.5 mg/kg/injection, schedule: Q07DX002 (ip), vehicle: saline): 102 % of control | T/C (dose: 125.0 mg/kg/injection, schedule: Q07DX002 (ip), vehicle: saline): 52 % of control

CS(=O)(=O)OCCN(CCOS(C)(=O)=O)c1ccc(C=O)cc1
T/C (dose: 6.25 mg/kg/injection, schedule: Q07DX002 (ip), vehicle: saline with Tween-80): 113 % of control | T/C [5]: 29 % of control | T/C [6]: 57 % of control | T/C [7]: 60 % of control

C#CCNC1=C(C)C(=O)C2=C(C1=O)[C@H](COC(N)=O)[C@]1(OC)[C@@H]3N[C@@H]3CN21
T/C (dose: 1.5 mg/kg/injection, schedule: Q07DX002 (ip), vehicle: distilled water + Tween-80): 49 % of control | T/C (dose: 3.0 mg/kg/injection, schedule: Q07DX002 (ip), vehicle: distilled water + Tween-80): 78 % of control | T/C (dose: 6.0 mg/kg/injection, schedule: Q07DX002 (ip), vehicle: distilled water + Tween-80): 20 % of control

COC12C(COC(N)=O)C3=C(C(=O)C(C)=C(N)C3=O)N1CC1C2N1C (stereo unspecified)
T/C (dose: 2.0 mg/kg/injection, schedule: Q07DX002 (ip), vehicle: saline): 93 % of control | T/C (dose: 4.0 mg/kg/injection, schedule: Q07DX002 (ip), vehicle: saline): 87 % of control | T/C (dose: 8.0 mg/kg/injection, schedule: Q07DX002 (ip), vehicle: saline): 100 % of control | T/C (dose: 16.0 mg/kg/injection, schedule: Q07DX002 (ip), vehicle: saline): 55 % of control | T/C (dose: 32.0 mg/kg/injection, schedule: Q07DX002 (ip), vehicle: saline): 11 % of control | T/C (dose: 64.0 mg/kg/injection, schedule: Q07DX002 (ip), vehicle: saline): 12 % of control

Cc1c2ccncc2c(C)c2c1[nH]c1ccccc12
T/C (dose: 10.0 mg/kg/injection, schedule: Q07DX002 (ip), vehicle: distilled water + Tween-80): 63 % of control | T/C [8]: 54 % of control and 75 % of control | T/C (dose: 12.5 mg/kg/injection, schedule: Q07DX003 (ip), vehicle: saline with Tween-80): 42 % of control | T/C (dose: 12.5 mg/kg/injection, schedule: Q07DX003 (ip), vehicle: saline): 78 % of control | T/C (dose: 20.0 mg/kg/injection, schedule: Q07DX002 (ip), vehicle: distilled water + Tween-80): 83 % of control and 103 % of control | T/C (dose: 20.0 mg/kg/injection, schedule: Q07DX002 (ip), vehicle: water): 61 % of control | T/C (dose: 25.0 mg/kg/injection, schedule: Q07DX003 (ip), vehicle: saline with Tween-80): 38 % of control | T/C (dose: 25.0 mg/kg/injection, schedule: Q07DX003 (ip), vehicle: saline): 69 % of control | T/C (dose: 40.0 mg/kg/injection, schedule: Q07DX002 (ip), vehicle: water): 9 % of control | T/C (dose: 50.0 mg/kg/injection, schedule: Q07DX003 (ip), vehicle: Klucel (hydroxypropylcellulose) (HPC)): 45 % of control and 55 % of control | T/C (dose: 50.0 mg/kg/injection, schedule: Q07DX003 (ip), vehicle: saline with Tween-80): 28 % of control | T/C (dose: 50.0 mg/kg/injection, schedule: Q07DX003 (ip), vehicle: saline): 67 % of control | T/C (dose: 80.0 mg/kg/injection, schedule: Q07DX002 (ip), vehicle: distilled water + Tween-80): 7 % of control | T/C [3]: 12 % of control and 25 % of control | T/C (dose: 100.0 mg/kg/injection, schedule: Q07DX003 (ip), vehicle: Klucel (hydroxypropylcellulose) (HPC)): 12 % of control and 20 % of control | T/C (dose: 100.0 mg/kg/injection, schedule: Q07DX003 (ip), vehicle: saline with Tween-80): 38 % of control | T/C (dose: 100.0 mg/kg/injection, schedule: Q07DX003 (ip), vehicle: saline): 33 % of control | T/C (dose: 200.0 mg/kg/injection, schedule: Q07DX003 (ip), vehicle: saline with Tween-80): 1 % of control | T/C (dose: 200.0 mg/kg/injection, schedule: Q07DX003 (ip), vehicle: saline): 2 % of control

CC1=C2CC(C)(C)/C=C\C(=O)/C(C)=C\C3=C[C@H](C)C[C@]3(O2)C1=O
T/C (dose: 1.5 mg/kg/injection, schedule: Q07DX002 (ip), vehicle: Klucel (hydroxypropylcellulose) (HPC)): 80 % of control | T/C (dose: 3.0 mg/kg/injection, schedule: Q07DX002 (ip), vehicle: Klucel (hydroxypropylcellulose) (HPC)): 100 % of control | T/C (dose: 6.0 mg/kg/injection, schedule: Q07DX002 (ip), vehicle: Klucel (hydroxypropylcellulose) (HPC)): 157 % of control

C1CN1c1nc(N2CC2)nc(N2CC2)n1
T/C (dose: 0.25 mg/kg/injection, schedule: Q07DX003 (ip), vehicle: saline): 30 % of control | T/C (dose: 0.5 mg/kg/injection, schedule: Q07DX003 (ip), vehicle: saline): 43 % of control | T/C (dose: 1.0 mg/kg/injection, schedule: Q07DX003 (ip), vehicle: saline): 36 % of control

CC(=O)Nc1cscc1NC(C)=O
T/C [7]: 115 % of control | T/C [9]: 91 % of control | T/C [10]: 66 % of control | T/C [11]: 93 % of control | T/C (dose: 800.0 mg/kg/injection, schedule: Q07DX002 (ip), vehicle: saline with Tween-80): 73 % of control

C=C1C(O)C2(O)OCC34C(CC5C(C)=CC(=O)C(O)C5(C)C23)OC(=O)C(OC(=O)C(C)(O)CC)C14 (stereo unspecified)
T/C (dose: 0.12 mg/kg/injection, schedule: Q07DX002 (ip), vehicle: saline + alcohol): 93 % of control | T/C (dose: 0.25 mg/kg/injection, schedule: Q07DX002 (ip), vehicle: saline + alcohol): 71 % of control | T/C (dose: 0.5 mg/kg/injection, schedule: Q07DX002 (ip), vehicle: saline + alcohol): 93 % of control | T/C (dose: 1.0 mg/kg/injection, schedule: Q07DX002 (ip), vehicle: saline + alcohol): 52 % of control | T/C (dose: 2.0 mg/kg/injection, schedule: Q07DX002 (ip), vehicle: saline + alcohol): 57 % of control

C[Si](C)(C)O/C=C1/CCOC1=O
T/C (dose: 25.0 mg/kg/injection, schedule: Q07DX002 (ip), vehicle: saline): 84 % of control | T/C (dose: 50.0 mg/kg/injection, schedule: Q07DX002 (ip), vehicle: saline): 86 % of control | T/C (dose: 100.0 mg/kg/injection, schedule: Q07DX002 (ip), vehicle: saline): 84 % of control | T/C (dose: 200.0 mg/kg/injection, schedule: Q07DX002 (ip), vehicle: saline): 95 % of control | T/C (dose: 400.0 mg/kg/injection, schedule: Q07DX002 (ip), vehicle: saline): 105 % of control | T/C (dose: 800.0 mg/kg/injection, schedule: Q07DX002 (ip), vehicle: saline): 78 % of control

CCOC(=O)N1CCc2nc3ccc(Cl)cc3cc21
T/C [6]: 68 % of control | T/C [7]: 68 % of control | T/C [9]: 166 % of control | T/C [10]: 79 % of control | T/C [11]: 111 % of control

Nc1ccc(Cl)cc1N
T/C [5]: 75 % of control and 97 % of control | T/C [6]: 78 % of control and 92 % of control

O=C1N=C(Oc2ccccc2)SC1=O
T/C [5]: 95 % of control | T/C [6]: 62 % of control and 80 % of control | T/C [7]: 53 % of control | T/C [9]: 88 % of control | T/C [10]: 118 % of control

C=C1C(=O)OC2/C=C(\CO)C(OC(C)=O)CC(O)/C(C)=C/C(OC(=O)C(C)CC)C12 (stereo unspecified)
T/C [3]: 165 % of control | T/C (dose: 200.0 mg/kg/injection, schedule: Q07DX002 (ip), vehicle: Klucel (hydroxypropylcellulose) (HPC)): 95 % of control | T/C [4]: 178 % of control

NS(=O)(=O)OCCCCCCCOS(N)(=O)=O
T/C [6]: 124 % of control | T/C [10]: 9 % of control and 16 % of control

C=C(C)C(=O)O[C@H]1CC2=C[C@@H](C[C@@]3(C)O[C@@H]3[C@H]3OC(=O)C(=C)[C@@H]31)OC2=O
T/C (dose: 3.12 mg/kg/injection, schedule: Q07DX002 (ip), vehicle: Klucel (hydroxypropylcellulose) (HPC)): 93 % of control | T/C (dose: 6.25 mg/kg/injection, schedule: Q07DX002 (ip), vehicle: Klucel (hydroxypropylcellulose) (HPC)): 112 % of control and 105 % of control | T/C [8]: 93 % of control | T/C [1]: 90 % of control and 102 % of control | T/C [2]: 113 % of control and 100 % of control
